Results from patent publication US12678509B2, “Inhibitor of apoptosis (IAP) protein antagonists” (Sanford Burnham Prebys Medical Discovery Institute, priority 2019, dated 2026).

Key:
[1] = system: latently infected cell line Jurkat 2D10; assay: HIV Jurkat 2D10 cells GFP+ assay (reversal of HIV latency); type: cell-based; conditions: Homo sapiens, Jurkat, 48 h, read-out: Jurkat 2D10 GFP+ EC50
Procedure: Several compounds (Table 5) were tested for their efficacy in the reversal of HIV latency in the latently infected cell line Jurkat 2D10. Jurkat 2D10 cells were treated with different doses of the compounds, or one of the following compounds: BV-6, SM-164, Birinapant, LCL-161, GDC-0152, AT-406 for 48 hours. Reversal of HW latency was evaluated by analyzing GFP expression using flow cytometry. Induction of GFP expression was compared to baseline GFP levels detected in the absence of treatment.

[2] = system: MOLM 13; assay: Cell viability (CellTiter-Glo), 6-day compound treatment; type: cell-based, Human; conditions: Homo sapiens, MOLM-13, 144 h, read-out: MOLM 13 Viability 6 d IC50
Procedure: (§1) The compound 18a was tested in 16 different cell lines. For 6-day compound treatment 1700 cells per well were plated in a 384-well plate (Corning #781098) and incubated overnight at 37° C./5% CO2. The following day, compounds in 10-fold dilutions were added to the plates and the plates were incubated for 6 days. Afterwards, 20 μL CellTiter-Glo reagent (Promega, #G7570) was added to each well outside of the incubator and the plates were read for luminescence on a Spark® multimode microplate reader (Tecan). Data was fit in GraphPad Prism 8 to a nonlinear regression curve to determine the IC50 of the compounds. […]

[3] = Pharmacokinetic study in mice, snapshot PK; type: in vivo; conditions: female, C57BL/6J, mouse, plasma, ip, one hour after i.p. injection of 10 mg/kg
Procedure: All animal procedures were approved by the Sanford Burnham Prebys Medical Discovery Institute Institutional Animal Care and Use Committee and were performed according to the NIH guidelines for the Care and Use of Laboratory Animals. Adult female C57BL/6J were purchased from JAX laboratories and housed with free access to food and water on a 12 h light/dark cycle. Compounds were formulated in 5% DMSO, 10% Tween-80, and 85% dH2O and injected intraperitoneally (i.p.) into mice at doses of 10 mg/kg. For snapshot PK analysis, blood samples were collected retro-orbitally one hour after injection and for the time course PK study, blood samples were collected at 15 min, 30 min, 1 h, 2 h, 4 h, 6 h, 24 h time points. For the blood samples plasma was separated by centrifugation. Plasma samples were extracted with acetonitrile:water 4:1 with 0.1% formic acid containing indometacin as an internal standard. Samples were centrifuged and supernatants were diluted with acetonitrile:water and analyzed via LC-MS/MS on a Shimadzu Nexera X2 HPLC coupled to an AB Sciex 6500 QTRAP.
Plasma exposure of selected compounds at 1 h compared.
Plasma levels of parent compound determined one hour after i.p. injection of 10 mg/kg

[4] = system: NB-4; assay: Cell viability (CellTiter-Glo); type: cell-based, Human; conditions: Homo sapiens, NB-4, 72 h, read-out: NB-4 Viability 72 h IC50
Procedure: as §1, with “The following day, compounds in 10-fold dilutions were added to the plates and the plates were incubated for 6 days.” left out

[5] = system: SKOV-3; assay: Cell viability (CellTiter-Glo), 48 hrs; type: cell-based; conditions: Homo sapiens, SK-OV-3, 48 h, read-out: SKOV-3 Viability 48 h IC50
Procedure: One thousand seven hundred cells per well were plated in a 384 well plate and incubated overnight at 37° C./5% CO2. The following day, compounds in 10-fold dilutions were added to the plates and the plates returned to the incubator for 48 hrs. 48 hrs later, plates were removed to the bench and 20 μL CellTiter-Glo reagent was added to each well and the plates were read for luminescence on a Spark® multimode microplate reader (Tecan). Data were fit using PRISM to a nonlinear regression curve to determine the IC50 of the compounds.

[6] = target: T1, ML-IAP (Homo sapiens, UniProt Q96CA5); assay: Fluorescence polarization assay; type: binding; conditions: SMAC-FITC probe, Ki calculated from IC50
T1 sequence (Q96CA5 1-298): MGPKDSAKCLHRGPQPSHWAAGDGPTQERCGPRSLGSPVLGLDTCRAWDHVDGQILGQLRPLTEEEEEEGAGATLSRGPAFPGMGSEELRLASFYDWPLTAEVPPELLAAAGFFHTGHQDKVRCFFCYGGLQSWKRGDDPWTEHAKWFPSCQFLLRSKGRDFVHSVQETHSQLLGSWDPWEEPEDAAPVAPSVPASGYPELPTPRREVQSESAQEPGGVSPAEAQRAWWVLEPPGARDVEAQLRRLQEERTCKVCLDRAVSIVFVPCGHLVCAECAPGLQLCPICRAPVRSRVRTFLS
Procedure: (§2) Binding of compounds to ML-IAP and BIR3 domain of cIAP1, cIAP2 and XIAP was determined by fluorescence polarization. Assay buffer was 100 mM KH2PO4 at pH 7.5, 50 μM ZnSO4, 1 mM TCEP (Tris(2-carboxyethyl)phosphine hydrochloride) and 50 nM SMAC-FITC probe (AbuRPF-K(5-Fam)-NH2) as described by Z. Nikolovska-Coleska et al.^9. cIAP1 and XIAP were present at 800 nM while cIAP2 and MLIAP were present at 1.5 μM. Compounds in 3-fold dilutions were added to the plates ranging from 30 μM to 1.5 nM. Assays were run in 384-well black plates read (Greiner Bio-One #784076) in an Analyst in fluorescence polarization mode with excitation at 485 nm and emission at 535 nm. Data was fit to a nonlinear regression curve in GraphPad Prism 8 to determine the IC50 values of the compounds. Ki's were then calculated from the IC50 values using equation: Ki=[I]50/([L]50/Kd+[P]0/Kd+1) formulated by Z. Nikolovska-Coleska et al.

[7] = target: BIR3 domain of cIAP1 (Homo sapiens, UniProt Q13490); assay: Fluorescence polarization assay; type: binding; conditions: SMAC-FITC probe, Ki calculated from IC50
Procedure: as §2

[8] = target: BIR3 domain of cIAP2 (Homo sapiens, UniProt Q13489); assay: Fluorescence polarization assay; type: binding; conditions: SMAC-FITC probe, Ki calculated from IC50
Procedure: as §2

[9] = target: BIR3 domain of XIAP (Homo sapiens, UniProt P98170); assay: Fluorescence polarization assay; type: binding; conditions: SMAC-FITC probe, Ki calculated from IC50
Procedure: as §2

[10] = system: AML-SH-065; assay: Cell viability in patient derived AML samples (CellTiterGlo, 72 h); type: cell-based, human; conditions: for IC50: Homo sapiens, 72 h, read-out: AML-SH-065 IC50; for AML-SH-065 Efficacy: patient derived AML sample AML-SH-065, 72 h, cell viability at max. concentration
Procedure: (§3) Patient AML samples were gathered (under IRB 13-6180) from Scripps MD Anderson, La Jolla, CA Fresh blood samples were subjected to gradient density centrifugation with Ficoll-Paque™ PLUS (17-1440-02, GE Healthcare) and peripheral blood mononuclear cells purified as per manufacturer's protocol.
(§4) 75 nL of 1000× serially diluted IAP inhibitors were spotted in triplicate onto 384-well tissue culture treated plates (Greiner) using a Labcyte Echo acoustic dispensing device. Patient-derived AML cells were maintained in mTeSR1^+1× supplements (Stemcell Technologies) and penicillin/streptomycin/L-glutamine (Omega Scientific Inc.) and Fungizone (HyClone). 25 μL of cell dilution were plated into 384-well plate containing the drugs and incubated for 72 h. Cell viability was assessed by adding 25 μL CellTiterGlo (Promega Corp.) on a Synergy 2 plate reader with Gen5 software (Biotek). % viability was calculated by normalizing luminescence to vehicle only controls (DMSO) in Microsoft Excel and plotted using GraphPad Prism 8. The IC50 values were calculated using log(inhibitor) vs. response—Variable slope (four parameters) equation. (FIG. 6)

[11] = system: AML-SH-075; assay: as above; type: cell-based, human; conditions: for IC50: Homo sapiens, 72 h, read-out: AML-SH-075 IC50; for AML-SH-075 Efficacy: patient derived AML sample AML-SH-075, 72 h, cell viability at max. concentration
Procedure: as §3, §4

[12] = system: AML-SH-074; assay: as above; type: cell-based, human; conditions: for IC50: Homo sapiens, 72 h, read-out: AML-SH-074 IC50; for AML-SH-074 Efficacy: patient derived AML sample AML-SH-074, 72 h, cell viability at max. concentration
Procedure: as §3, §4

BIR3 domain of cIAP2, sequence (Q13489 238-349 limits assumed): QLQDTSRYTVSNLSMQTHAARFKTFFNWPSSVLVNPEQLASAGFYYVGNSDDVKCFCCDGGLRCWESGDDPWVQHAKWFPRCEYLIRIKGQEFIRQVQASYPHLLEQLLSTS
BIR3 domain of XIAP, sequence (P98170 241-356 limits assumed): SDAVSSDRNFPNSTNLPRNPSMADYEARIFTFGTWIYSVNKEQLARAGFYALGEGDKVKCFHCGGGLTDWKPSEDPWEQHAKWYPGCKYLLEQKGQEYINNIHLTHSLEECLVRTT
BIR3 domain of cIAP1, sequence (Q13490 253-363 limits assumed): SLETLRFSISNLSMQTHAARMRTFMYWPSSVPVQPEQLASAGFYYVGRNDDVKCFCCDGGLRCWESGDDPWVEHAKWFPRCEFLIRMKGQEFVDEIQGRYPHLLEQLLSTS

CN[C@@H](C)C(=O)N[C@H]1CCS[C@H]2CC(C)(C)[C@@H](C(=O)N[C@H]3c4ccccc4C[C@H]3OCCCCCCO[C@@H]3Cc4ccccc4[C@@H]3NC(=O)[C@H]3N4C(=O)[C@@H](NC(=O)[C@H](C)NC)CCS[C@H]4CC3(C)C)N2C1=O [Compound 18b, (2S)-1-{[(4S,7S,9aS)-7-({(1S,2R)-2-[(6-{[(1S,2R)-1-({[(4S,7S,9aS)-8,8-Dimethyl-4-{[(2S)-2-(methylammonio)propanoyl]amino}-5-oxooctahydropyrrolo[2,1-b][1,3]thiazepin-7-yl]carbonyl}amino)-2,3-dihydro-1H-inden-2-yl]oxy}hexyl)oxy]-2,3-dihydro-1H-inden-1-yl}carbamoyl)-8,8-dimethyl-5-oxooctahydropyrrolo[2,1-b][1,3]thiazepin-4-yl]amino}-N-methyl-1-oxopropan-2-ammonium dichloride]
EC50 [1]: 1 to 10 nM
IC50 [2]: 100 to 1000 nM
concentration at 1 h [3]: 714 nM
IC50 [4]: < 10 nM
IC50 [5]: < 10 nM
Ki [6]: 50 to 100 nM
Ki [7]: ≤ 50 nM
Ki [8]: 50 to 100 nM
Ki [9]: ≤ 50 nM

CN[C@@H](C)C(=O)N[C@H]1CCS[C@H]2CC(C)(C)[C@@H](C(=O)N[C@H]3c4ccccc4C[C@H]3OCC#Cc3ccc(C#CCO[C@@H]4Cc5ccccc5[C@@H]4NC(=O)[C@H]4N5C(=O)[C@@H](NC(=O)[C@H](C)NC)CCS[C@H]5CC4(C)C)cc3)N2C1=O [Compound 18c]
EC50 [1]: 1 to 10 nM
IC50 [2]: 10 to 100 nM
concentration at 1 h [3]: 1310 nM
IC50 [4]: < 10 nM
IC50 [5]: < 10 nM
Ki [6]: 50 to 100 nM
Ki [7]: ≤ 50 nM
Ki [8]: 50 to 100 nM
Ki [9]: ≤ 50 nM
IC50 [10]: 10 to 100 nM
AML-SH-065 Efficacy [10]: I (I < 10%)
IC50 [11]: 1000 to 10000 nM
AML-SH-075 Efficacy [11]: I (I < 10%)
IC50 [12]: 100 to 1000 nM
AML-SH-074 Efficacy [12]: I (I < 10%)

CN[C@@H](C)C(=O)N[C@H]1CCS[C@H]2CC(C)(C)[C@@H](C(=O)N[C@H](CCOCC#CC#CCOCC[C@@H](NC(=O)[C@H]3N4C(=O)[C@@H](NC(=O)[C@H](C)NC)CCS[C@H]4CC3(C)C)c3ccccc3)c3ccccc3)N2C1=O [Compound 18i, (2S)-1-{[(4S,7S,9aS)-74{(1R)-3-[(6-{[(3R)-3-({[(4S,7S,9aS)-8,8-Dimethyl-4-{[(2S)-2-(methylammonio)propanoyl]amino}-5-oxooctahydropyrrolo[2,1-b][1,3]thiazepin-7-yl]carbonyl}amino)-3-phenylpropyl]oxy}hexa-2,4-diyn-1-yl)oxy]-1-phenylpropyl}carbamoyl)-8,8-dimethyl-5-oxooctahydropyrrolo[2,1-b][1,3]thiazepin-4-yl]amino}-N-methyl-1-oxopropan-2-ammonium dichloride]
EC50 [1]: 10 to 100 nM
IC50 [2]: 100 to 1000 nM
concentration at 1 h [3]: 1240 nM
IC50 [4]: < 10 nM
IC50 [5]: < 10 nM
Ki [6]: 50 to 100 nM
Ki [7]: ≤ 50 nM
Ki [8]: 50 to 100 nM
Ki [9]: 50 to 100 nM

CN[C@@H](C)C(=O)N[C@H]1CCS[C@H]2CC3(CC=CC3)[C@@H](C(=O)N[C@H]3c4ccccc4C[C@H]3OCC#CC#CCO[C@@H]3Cc4ccccc4[C@@H]3NC(=O)[C@H]3N4C(=O)[C@@H](NC(=O)[C@H](C)NC)CCS[C@H]4CC34CC=CC4)N2C1=O [Compound 18o]
EC50 [1]: 1 to 10 nM
IC50 [2]: 10 to 100 nM
concentration at 1 h [3]: 5180 nM
IC50 [5]: < 10 nM
Ki [6]: 100 to 200 nM
Ki [7]: ≤ 50 nM
Ki [8]: 50 to 100 nM
Ki [9]: ≤ 50 nM

CN[C@@H](C)C(=O)N[C@H]1CCO[C@H]2CC(C)(C)[C@@H](C(=O)N[C@H]3c4ccccc4C[C@H]3OCC#CC#CCO[C@@H]3Cc4ccccc4[C@@H]3NC(=O)[C@H]3N4C(=O)[C@@H](NC(=O)[C@H](C)NC)CCO[C@H]4CC3(C)C)N2C1=O [Compound 18q, [(1S)-1-{[(4S,7S,9aS)-7-{[(1S,2R)-2-[(6-{[(1S,2R)-1-[(4S,7S,9aS)-8,8-Dimethyl-4-[(2S)-2-(methylazaniumyl)propanamido]-5-oxo-octahydropyrrolo[2,1-b][1,3]oxazepine-7-amido]-2,3-dihydro-1H-inden-2-yl]oxy}hexa-2,4-diyn-1-yl)oxy]-2,3-dihydro-1H-inden-1-yl]carbamoyl}-8,8-dimethyl-5-oxo-octahydropyrrolo[2,1-b][1,3]oxazepin-4-yl]carbamoyl}ethyl](methyl)azanium dichloride]
EC50 [1]: 100 to 1000 nM
IC50 [2]: 10 to 100 nM
concentration at 1 h [3]: 1870 nM
IC50 [5]: < 10 nM
Ki [6]: 50 to 100 nM
Ki [7]: 50 to 100 nM
Ki [8]: 50 to 100 nM
Ki [9]: ≤ 50 nM
IC50 [10]: 10 to 100 nM
AML-SH-065 Efficacy [10]: I (I < 10%)
IC50 [11]: 10 to 100 nM
AML-SH-075 Efficacy [11]: I (I < 10%)
IC50 [12]: 100 to 1000 nM
AML-SH-074 Efficacy [12]: I (I < 10%)
